Publication PMC5218480 (PLoS ONE, 2017)

Tested on: MV-4-11 cells
Experiment: Gene expression microarray analysis (Affymetrix PrimeView) and GSEA
Type: cell-based, human
Set-up: RFU PODN (11730768_x_at) / Fold change /veh PODN (11730768_x_at) / RFU LINC00158 (11744669_a_at) / Fold change /veh LINC00158 (11744669_a_at) / RFU DUSP10 (11751237_a_at) / Fold change /veh DUSP10 (11751237_a_at) / RFU ID3 (11757404_x_at) / Fold change /veh ID3 (11757404_x_at) / RFU PLEKHG5 (11737974_s_at) / Fold change /veh PLEKHG5 (11737974_s_at) / RFU LRRC4B (11730491_at) / Fold change /veh LRRC4B (11730491_at) / RFU GIMAP4 (11747438_a_at) / Fold change /veh GIMAP4 (11747438_a_at) / RFU KRT8 (11758183_x_at) / Fold change /veh KRT8 (11758183_x_at) / RFU CNN1 (11734310_a_at) / Fold change /veh CNN1 (11734310_a_at) / RFU VPS37D (11726825_at) / Fold change /veh VPS37D (11726825_at) / RFU C10orf10 (11716522_x_at) / Fold change /veh C10orf10 (11716522_x_at) / RFU KIR2DL2 /// KIR2DL4 /// KIR2DL5A /// KIR2DL5B /// KIR2DS1 /// KIR2DS2 /// KIR2DS3 /// KIR2DS4 /// KIR3DL3 /// KIR3DL3 /// KIR3DS1 (11738374_at) / Fold change /veh KIR2DL2 /// KIR2DL4 /// KIR2DL5A /// KIR2DL5B /// KIR2DS1 /// KIR2DS2 /// KIR2DS3 /// KIR2DS4 /// KIR3DL3 /// KIR3DL3 /// KIR3DS1 (11738374_at) / RFU C1QL1 (11718748_at) / Fold change /veh C1QL1 (11718748_at) / RFU TMPRSS4 (11747572_a_at) / Fold change /veh TMPRSS4 (11747572_a_at) / RFU HAMP (11756126_x_at) / Fold change /veh HAMP (11756126_x_at) / RFU RNFT2 (11725882_a_at) / Fold change /veh RNFT2 (11725882_a_at) / RFU NR4A2 (11747474_a_at) / Fold change /veh NR4A2 (11747474_a_at) / RFU ABCC12 (11746883_a_at) / Fold change /veh ABCC12 (11746883_a_at) / RFU TMEM136 (11760407_x_at) / Fold change /veh TMEM136 (11760407_x_at) / RFU CLDN22 /// WWC2 (11732394_at) / Fold change /veh CLDN22 /// WWC2 (11732394_at) / RFU HLA-DPB1 (11760878_x_at) / Fold change /veh HLA-DPB1 (11760878_x_at) / RFU SPINT1 (11716480_a_at) / Fold change /veh SPINT1 (11716480_a_at) / RFU GAP43 (11754022_s_at) / Fold change /veh GAP43 (11754022_s_at) / RFU A4GNT (11735810_at) / Fold change /veh A4GNT (11735810_at) / RFU PRB3 (11715151_x_at) / Fold change /veh PRB3 (11715151_x_at) / RFU TUBB4B (11761932_at) / Fold change /veh TUBB4B (11761932_at) / RFU CAPN14 (11732068_a_at) / Fold change /veh CAPN14 (11732068_a_at) / RFU TMCC2 (11721928_a_at) / Fold change /veh TMCC2 (11721928_a_at) / RFU IRGQ (11745062_a_at) / Fold change /veh IRGQ (11745062_a_at) / RFU FAM174B (11720279_a_at) / Fold change /veh FAM174B (11720279_a_at) / RFU TMPRSS4 (11748680_a_at) / Fold change /veh TMPRSS4 (11748680_a_at) / RFU FAM212B (11763350_a_at) / Fold change /veh FAM212B (11763350_a_at) / RFU PLEKHG5 (11743358_a_at) / Fold change /veh PLEKHG5 (11743358_a_at) / RFU ZSCAN30 (11745921_a_at) / Fold change /veh ZSCAN30 (11745921_a_at) / RFU CMKLR1 (11741424_a_at) / Fold change /veh CMKLR1 (11741424_a_at) / RFU LOC101060620 /// MAPK8IP1 (11723275_at) / Fold change /veh LOC101060620 /// MAPK8IP1 (11723275_at) / RFU SPTSSB (11747773_x_at) / Fold change /veh SPTSSB (11747773_x_at) / RFU PRSS12 (11739890_at) / Fold change /veh PRSS12 (11739890_at) / RFU BIN1 (11741810_x_at) / Fold change /veh BIN1 (11741810_x_at) / RFU WNT11 (11732464_a_at) / Fold change /veh WNT11 (11732464_a_at) / RFU C10orf10 (11716521_a_at) / Fold change /veh C10orf10 (11716521_a_at) / RFU C5orf56 (11738089_at) / Fold change /veh C5orf56 (11738089_at) / RFU CYB561 (11721691_x_at) / Fold change /veh CYB561 (11721691_x_at) / RFU ANKRD19P (11752326_a_at) / Fold change /veh ANKRD19P (11752326_a_at) / RFU OR2T12 /// OR2T33 /// OR2T8 (11738714_s_at) / Fold change /veh OR2T12 /// OR2T33 /// OR2T8 (11738714_s_at) / RFU VCAN (11748164_a_at) / Fold change /veh VCAN (11748164_a_at) / RFU JSRP1 (11732532_at) / Fold change /veh JSRP1 (11732532_at) / RFU KRTAP10-11 (11738290_x_at) / Fold change /veh KRTAP10-11 (11738290_x_at) / RFU MYO3A (11730013_a_at) / Fold change /veh MYO3A (11730013_a_at) / RFU EBF3 (11725865_a_at) / Fold change /veh EBF3 (11725865_a_at) / RFU CAMK2N1 (11719241_x_at) / Fold change /veh CAMK2N1 (11719241_x_at) / RFU C5orf56 (11738088_a_at) / Fold change /veh C5orf56 (11738088_a_at) / RFU OLFML3 (11715873_a_at) / Fold change /veh OLFML3 (11715873_a_at) / RFU LOC100653217 /// NTM (11731650_a_at) / Fold change /veh LOC100653217 /// NTM (11731650_a_at) / RFU MAPK11 (11762145_a_at) / Fold change /veh MAPK11 (11762145_a_at) / RFU FIZ1 (11724087_x_at) / Fold change /veh FIZ1 (11724087_x_at) / RFU OASL (11726364_x_at) / Fold change /veh OASL (11726364_x_at) / RFU SOX15 (11748057_x_at) / Fold change /veh SOX15 (11748057_x_at) / RFU CD79A (11719716_a_at) / Fold change /veh CD79A (11719716_a_at) / RFU HIST1H1D (11736915_at) / Fold change /veh HIST1H1D (11736915_at) / RFU CASKIN2 (11723855_a_at) / Fold change /veh CASKIN2 (11723855_a_at) / RFU LOC730098 (11760151_x_at) / Fold change /veh LOC730098 (11760151_x_at) / RFU OR4N2 (11742367_at) / Fold change /veh OR4N2 (11742367_at) / RFU PRRT2 (11749266_a_at) / Fold change /veh PRRT2 (11749266_a_at) / RFU SNX32 (11753110_a_at) / Fold change /veh SNX32 (11753110_a_at) / RFU CDHR5 (11726645_a_at) / Fold change /veh CDHR5 (11726645_a_at) / RFU RCAN1 (11760418_a_at) / Fold change /veh RCAN1 (11760418_a_at) / RFU FAM167A (11723789_a_at) / Fold change /veh FAM167A (11723789_a_at) / RFU FAM26E (11764081_at) / Fold change /veh FAM26E (11764081_at) / RFU ISYNA1 (11749810_s_at) / Fold change /veh ISYNA1 (11749810_s_at) / RFU ACY1 (11761880_at) / Fold change /veh ACY1 (11761880_at) / RFU 11764098_at / Fold change /veh 11764098_at / RFU SAMD14 (11745864_x_at) / Fold change /veh SAMD14 (11745864_x_at) / RFU NPB (11741838_a_at) / Fold change /veh NPB (11741838_a_at) / RFU TMPRSS6 (11731388_a_at) / Fold change /veh TMPRSS6 (11731388_a_at) / RFU KRTAP10-2 (11738614_at) / Fold change /veh KRTAP10-2 (11738614_at) / RFU ARHGAP8 /// PRR5-ARHGAP8 (11727945_x_at) / Fold change /veh ARHGAP8 /// PRR5-ARHGAP8 (11727945_x_at) / RFU KRTAP5-7 /// NADSYN1 (11734609_at) / Fold change /veh KRTAP5-7 /// NADSYN1 (11734609_at) / RFU RASL12 (11751679_a_at) / Fold change /veh RASL12 (11751679_a_at) / RFU CDKN2B (11736163_a_at) / Fold change /veh CDKN2B (11736163_a_at) / RFU PRF1 (11729649_at) / Fold change /veh PRF1 (11729649_at) / RFU, ZNF638 /// ZNF638-IT1 / Fold change vs veh, ZNF638 /// ZNF638-IT1 / RFU, PANK3 / Fold change vs veh, PANK3 / RFU, SH3YL1 / Fold change vs veh, SH3YL1 / RFU, ZEB2 / Fold change vs veh, ZEB2 / RFU, NRIP1 / Fold change vs veh, NRIP1 / RFU, PTTG1IP / Fold change vs veh, PTTG1IP / RFU, CAPN2 / Fold change vs veh, CAPN2 / RFU, MED14 / Fold change vs veh, MED14 / RFU, SNORA58 / Fold change vs veh, SNORA58 / RFU, C1orf63 / Fold change vs veh, C1orf63 / RFU, LRRFIP1 / Fold change vs veh, LRRFIP1 / RFU, NDUFAF7 / Fold change vs veh, NDUFAF7 / RFU, SLC12A2 / Fold change vs veh, SLC12A2 / RFU, IBTK / Fold change vs veh, IBTK / RFU, ESF1 / Fold change vs veh, ESF1 / Fold change vs veh, TMEM50B / RFU, TAOK1 / Fold change vs veh, TAOK1 / RFU, ACBD3 / Fold change vs veh, ACBD3 / RFU, TMA16 / Fold change vs veh, TMA16 / RFU, RWDD3 / Fold change vs veh, RWDD3 / RFU, BCAT1 / Fold change vs veh, BCAT1 / RFU, EDEM3 / Fold change vs veh, EDEM3 / RFU, TMEM33 / Fold change vs veh, TMEM33 / RFU, WDR75 / Fold change vs veh, WDR75 / RFU, AHCTF1 / Fold change vs veh, AHCTF1 / RFU, TFRC / Fold change vs veh, TFRC / RFU, ZDHHC17 / Fold change vs veh, ZDHHC17 / RFU, NOM1 / Fold change vs veh, NOM1 / RFU, ARL8B / Fold change vs veh, ARL8B / RFU, ZBTB11 / Fold change vs veh, ZBTB11 / RFU, TAMM41 / Fold change vs veh, TAMM41 / RFU, KIAA1704 /// LOC100996395 / Fold change vs veh, KIAA1704 /// LOC100996395 / RFU, ING1 / Fold change vs veh, ING1 / RFU, TRMT61B / Fold change vs veh, TRMT61B / RFU, FUBP3 / Fold change vs veh, FUBP3 / RFU, TP53 / Fold change vs veh, TP53 / RFU, TNKS2 / Fold change vs veh, TNKS2 / RFU, ZFP14 / Fold change vs veh, ZFP14 / RFU, ACTR2 / Fold change vs veh, ACTR2 / RFU, PPP3R1 / Fold change vs veh, PPP3R1 / RFU, PIK3R1 / Fold change vs veh, PIK3R1 / RFU, HNRNPA1 / Fold change vs veh, HNRNPA1 / RFU, RNF170 / Fold change vs veh, RNF170 / RFU, ZNF28 / Fold change vs veh, ZNF28 / RFU, RNGTT / Fold change vs veh, RNGTT / RFU, OGT / Fold change vs veh, OGT / RFU, BRD1 / Fold change vs veh, BRD1 / RFU, MARS / Fold change vs veh, MARS / RFU, ZNF655 / Fold change vs veh, ZNF655 / RFU, FAHD1 / Fold change vs veh, FAHD1 / RFU, BDP1 / Fold change vs veh, BDP1 / RFU, LRRCC1 / Fold change vs veh, LRRCC1 / RFU, ARID1A / Fold change vs veh, ARID1A / RFU, ZNF146 / Fold change vs veh, ZNF146 / RFU, ZNF330 / Fold change vs veh, ZNF330 / RFU, GPN3 / Fold change vs veh, GPN3 / RFU, C9orf123 / Fold change vs veh, C9orf123 / RFU, N4BP2L2 / Fold change vs veh, N4BP2L2 / RFU, ARFIP1 / Fold change vs veh, ARFIP1 / RFU, FAM179B / Fold change vs veh, FAM179B / RFU, BCL10 / Fold change vs veh, BCL10 / RFU, UHRF1BP1L / Fold change vs veh, UHRF1BP1L / RFU, BET1 / Fold change vs veh, BET1 / RFU, CNOT2 / Fold change vs veh, CNOT2 / RFU, ZNF268 / Fold change vs veh, ZNF268 / Fold change vs veh, ZNF507 / RFU, DGCR2 / Fold change vs veh, DGCR2 / RFU, WDSUB1 / Fold change vs veh, WDSUB1 / Fold change vs veh, HSP90B1 /// MIR3652 / RFU, ADSS / Fold change vs veh, ADSS / RFU, GK / Fold change vs veh, GK / RFU, ZNF148 / Fold change vs veh, ZNF148 / RFU, TAF9 / Fold change vs veh, TAF9 / RFU, SLC1A5 / Fold change vs veh, SLC1A5 / RFU, SLMO2 / Fold change vs veh, SLMO2 / RFU, ABCC4 / Fold change vs veh, ABCC4 / RFU, LOC101060439 /// RAP1B / Fold change vs veh, LOC101060439 /// RAP1B / RFU, RFX7 / Fold change vs veh, RFX7 / RFU, GTPBP10 / Fold change vs veh, GTPBP10 / RFU, CNEP1R1 / Fold change vs veh, CNEP1R1 / RFU, BIVM-ERCC5 /// ERCC5 / Fold change vs veh, BIVM-ERCC5 /// ERCC5 / RFU, ILF3 / Fold change vs veh, ILF3 / RFU 11762660_at / Fold change /veh 11762660_at / RFU VCAN (11757783_s_at) / Fold change /veh VCAN (11757783_s_at) / RFU DDX43 (11728927_at) / Fold change /veh DDX43 (11728927_at) / RFU KRT8 (11758188_x_at) / Fold change /veh KRT8 (11758188_x_at) / RFU NKD1 (11759106_at) / Fold change /veh NKD1 (11759106_at) / RFU SRD5A1 (11742802_a_at) / Fold change /veh SRD5A1 (11742802_a_at) / RFU TPSAB1 /// TPSB2 (11721975_s_at) / Fold change /veh TPSAB1 /// TPSB2 (11721975_s_at) / RFU GSTM3 (11746129_a_at) / Fold change /veh GSTM3 (11746129_a_at) / RFU IL23R (11737362_x_at) / Fold change /veh IL23R (11737362_x_at) / RFU TMEM51 (11727254_a_at) / Fold change /veh TMEM51 (11727254_a_at) / RFU PIWIL2 (11732686_x_at) / Fold change /veh PIWIL2 (11732686_x_at) / RFU ORM1 (11744905_x_at) / Fold change /veh ORM1 (11744905_x_at) / RFU CCDC152 (11743942_at) / Fold change /veh CCDC152 (11743942_at) / RFU ECM1 (11717891_a_at) / Fold change /veh ECM1 (11717891_a_at) / RFU IL23R (11748794_a_at) / Fold change /veh IL23R (11748794_a_at) / RFU TNFAIP8L3 (11732012_x_at) / Fold change /veh TNFAIP8L3 (11732012_x_at) / RFU MBOAT4 (11741988_at) / Fold change /veh MBOAT4 (11741988_at) / RFU 11764193_at / Fold change /veh 11764193_at / RFU TMEM53 (11763286_at) / Fold change /veh TMEM53 (11763286_at) / RFU MAGEB2 (11727129_at) / Fold change /veh MAGEB2 (11727129_at) / RFU TMEM200A (11744735_a_at) / Fold change /veh TMEM200A (11744735_a_at) / RFU CCDC152 (11751479_a_at) / Fold change /veh CCDC152 (11751479_a_at) / RFU FAM211A (11726209_a_at) / Fold change /veh FAM211A (11726209_a_at) / RFU RGS16 (11746705_a_at) / Fold change /veh RGS16 (11746705_a_at) / RFU VCAN (11755009_s_at) / Fold change /veh VCAN (11755009_s_at) / RFU RHOB (11743442_s_at) / Fold change /veh RHOB (11743442_s_at) / RFU RGS16 (11720943_a_at) / Fold change /veh RGS16 (11720943_a_at) / RFU RGS16 (11720944_at) / Fold change /veh RGS16 (11720944_at) / RFU, VPS4B / Fold change vs veh, VPS4B / RFU, CREB1 / Fold change vs veh, CREB1 / RFU, DNAJC13 / Fold change vs veh, DNAJC13 / RFU, GNAQ / Fold change vs veh, GNAQ / RFU, CDK5R1 / Fold change vs veh, CDK5R1 / RFU, ZRANB3 / Fold change vs veh, ZRANB3 / RFU, CUL4A / Fold change vs veh, CUL4A / RFU, CCNY / Fold change vs veh, CCNY / RFU, UFL1 / Fold change vs veh, UFL1 / RFU, COG3 / Fold change vs veh, COG3 / RFU, DIAPH2 / Fold change vs veh, DIAPH2 / RFU, SKA2 / Fold change vs veh, SKA2 / RFU, AFF3 / Fold change vs veh, AFF3 / RFU, LMF1 / Fold change vs veh, LMF1 / RFU, IPO11 / Fold change vs veh, IPO11 / RFU, DFFB / Fold change vs veh, DFFB / RFU, FOXP1 / Fold change vs veh, FOXP1 / RFU, CARD8 / Fold change vs veh, CARD8 / RFU, STRN3 / Fold change vs veh, STRN3 / RFU, ADK / Fold change vs veh, ADK / RFU, RASSF2 / Fold change vs veh, RASSF2 / RFU, WIPF1 / Fold change vs veh, WIPF1 / RFU, LARP1B / Fold change vs veh, LARP1B / RFU, RASA1 / Fold change vs veh, RASA1 / RFU, RB1 / Fold change vs veh, RB1 / RFU, PPFIA1 / Fold change vs veh, PPFIA1 / RFU, MAT2A / Fold change vs veh, MAT2A / RFU, CCT5 / Fold change vs veh, CCT5 / RFU, WDR92 / Fold change vs veh, WDR92 / RFU, CUX1 / Fold change vs veh, CUX1 / RFU, TTC7A / Fold change vs veh, TTC7A / RFU, TMEM135 / Fold change vs veh, TMEM135 / RFU, DEPTOR / Fold change vs veh, DEPTOR / RFU, CPM / Fold change vs veh, CPM / RFU, DNAJB6 / Fold change vs veh, DNAJB6 / RFU, CACNA2D3 / Fold change vs veh, CACNA2D3 / RFU, DTX4 / Fold change vs veh, DTX4 / RFU, TFCP2 / Fold change vs veh, TFCP2 / RFU, GMCL1 /// GMCL1P1 / Fold change vs veh, GMCL1 /// GMCL1P1 / RFU, AEBP2 / Fold change vs veh, AEBP2 / RFU, SNHG1 /// SNORD22 /// SNORD25 /// SNORD26 /// SNORD27 /// SNORD28 /// SNORD29 /// SNORD31 / Fold change vs veh, SNHG1 /// SNORD22 /// SNORD25 /// SNORD26 /// SNORD27 /// SNORD28 /// SNORD29 /// SNORD31 / Fold change (Aza/veh), C12orf56 (ProbeSet 11735607_a_at) / Fold change (ACY-1035/veh), C12orf56 (ProbeSet 11735607_a_at) / Fold change (Aza/veh), FGFR1OP (ProbeSet 11751329_s_at) / Fold change (ACY-1035/veh), FGFR1OP (ProbeSet 11751329_s_at) / Fold change (Aza/veh), VPS36 (ProbeSet 11739960_a_at) / Fold change (ACY-1035/veh), VPS36 (ProbeSet 11739960_a_at) / RFU SYPL1 (11715823_x_at) / Fold change /veh SYPL1 (11715823_x_at) / RFU IGFBP7 (11715501_s_at) / Fold change /veh IGFBP7 (11715501_s_at) / RFU REEP3 (11722064_at) / Fold change /veh REEP3 (11722064_at) / RFU IGLL1 (11728026_x_at) / Fold change /veh IGLL1 (11728026_x_at): dose or concentration left out as unconfirmed
Details: MV-4-11 cells, 48 hours

**Q.** With Nc1ccc(-c2cccs2)cc1NC(=O)c1ccc2c(c1)cc(C1CC1)n2CCN1CCOCC1 [ACY-1035] as the molecule, how does the “Fold change /veh FAM26E (11764081_at)” value read?
**A.** 0.88
